System: MDA-MB-231 multicell spheroids, viability
Test: Anticancer human tumor MDA-MB-231 cell line growth inhibition [PI3K];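 also: spheroids exposed to agents for seven days before reading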;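 as to viability, T/C: percent of vehicle control luminescence with DMSO treated spheroids as 100%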
Settings: for IC50: curve of first compound; for viability, T/C: stronger effect = lower value
How it was run: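 Agents were dosed from a top concentration near clinical Cmax (otherwise 10 microM) in half-log decrements, alone or combined with PI3K inhibitors. The spheroids contain tumor cells plus endothelial (HUVEC) and MSC stroma; viability is measured.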

[1] = second compound 0.0316 µM, first compound 0.0316 µM
[2] = second compound 0.0316 µM, first compound 0.1 µM
[3] = second compound 0.0316 µM, first compound 0.316 µM
[4] = second compound 0.0316 µM, first compound 1 µM
[5] = second compound 0.0316 µM, first compound 3.16 µM
[6] = second compound 0.0316 µM, first compound 10 µM
[7] = second compound 0.1 µM, first compound 0.0316 µM
[8] = second compound 0.1 µM, first compound 0.1 µM
[9] = second compound 0.1 µM, first compound 0.316 µM
[10] = second compound 0.1 µM, first compound 1 µM
[11] = second compound 0.1 µM, first compound 3.16 µM
[12] = second compound 0.1 µM, first compound 10 µM
[13] = second compound 0.316 µM, first compound 0.0316 µM
[14] = second compound 0.316 µM, first compound 0.1 µM
[15] = second compound 0.316 µM, first compound 0.316 µM
[16] = second compound 0.316 µM, first compound 1 µM
[17] = second compound 0.316 µM, first compound 3.16 µM
[18] = second compound 0.316 µM, first compound 10 µM
[19] = second compound 1 µM, first compound 0.0316 µM
[20] = second compound 1 µM, first compound 0.1 µM
[21] = second compound 1 µM, first compound 0.316 µM
[22] = second compound 1 µM, first compound 1 µM
[23] = second compound 1 µM, first compound 3.16 µM
[24] = second compound 1 µM, first compound 10 µM
[25] = second compound 3.16 µM, first compound 0.0316 µM
[26] = second compound 3.16 µM, first compound 0.1 µM
[27] = second compound 3.16 µM, first compound 0.316 µM
[28] = second compound 3.16 µM, first compound 1 µM
[29] = second compound 3.16 µM, first compound 3.16 µM
[30] = second compound 3.16 µM, first compound 10 µM
[31] = second compound 10 µM, first compound 0.0316 µM
[32] = second compound 10 µM, first compound 0.1 µM
[33] = second compound 10 µM, first compound 0.316 µM
[34] = second compound 10 µM, first compound 1 µM
[35] = second compound 10 µM, first compound 3.16 µM
[36] = second compound 10 µM, first compound 10 µM

CC(C)NCC(C(=O)N1CCN(c2ncnc3c2C(C)CC3O)CC1)c1ccc(Cl)cc1 (stereo not drawn) + CC(Nc1ncnc2nc[nH]c12)c1cc2cccc(Cl)c2c(=O)n1-c1ccccc1
IC50 (second compound 0.0316 µM): 8610 nM | IC50 (second compound 0.1 µM): 8770 nM | IC50 (second compound 0.316 µM): 6480 nM | IC50 (second compound 1 µM): 5570 nM | IC50 (second compound 3.16 µM): 1870 nM | IC50 (second compound 10 µM): 96.5 nM | viability, T/C [1]: 103% | viability, T/C [2]: 98% | viability, T/C [3]: 97.1% | viability, T/C [4]: 91% | viability, T/C [5]: 64.3% | viability, T/C [6]: 47.9% | viability, T/C [7]: 106% | viability, T/C [8]: 88.5% | viability, T/C [9]: 91.8% | viability, T/C [10]: 82.2% | viability, T/C [11]: 66.3% | viability, T/C [12]: 46.8% | viability, T/C [13]: 86% | viability, T/C [14]: 102% | viability, T/C [15]: 86.8% | viability, T/C [16]: 77.9% | viability, T/C [17]: 62.1% | viability, T/C [18]: 43% | viability, T/C [19]: 92.1% | viability, T/C [20]: 82.3% | viability, T/C [21]: 76.5% | viability, T/C [22]: 65.9% | viability, T/C [23]: 55.2% | viability, T/C [24]: 44.3% | viability, T/C [25]: 63.5% | viability, T/C [26]: 62.1% | viability, T/C [27]: 63% | viability, T/C [28]: 51.6% | viability, T/C [29]: 45.3% | viability, T/C [30]: 39.1% | viability, T/C [31]: 52.5% | viability, T/C [32]: 48.6% | viability, T/C [33]: 49.3% | viability, T/C [34]: 40.7% | viability, T/C [35]: 37.9% | viability, T/C [36]: 31.8%

CCN1CCN(Cc2ccc(Nc3ncc(F)c(-c4cc(F)c5nc(C)n(C(C)C)c5c4)n3)nc2)CC1 + CC(Nc1ncnc2nc[nH]c12)c1cc2cccc(Cl)c2c(=O)n1-c1ccccc1
IC50 (second compound 0.0316 µM): > 1000 nM | IC50 (second compound 0.1 µM): > 1000 nM | IC50 (second compound 0.316 µM): 988 nM | IC50 (second compound 1 µM): 85.4 nM | IC50 (second compound 3.16 µM): 20.1 nM | IC50 (second compound 10 µM): < 3.16 nM | viability, T/C (second compound 0.0316 µM, first compound 0.00316 µM): 96.7% | viability, T/C (second compound 0.0316 µM, first compound 0.01 µM): 93.2% | viability, T/C [1]: 81.4% | viability, T/C [2]: 58.9% | viability, T/C [3]: 57.1% | viability, T/C [4]: 56.8% | viability, T/C (second compound 0.1 µM, first compound 0.00316 µM): 98.2% | viability, T/C (second compound 0.1 µM, first compound 0.01 µM): 84.4% | viability, T/C [7]: 79% | viability, T/C [8]: 59.1% | viability, T/C [9]: 55% | viability, T/C [10]: 51.9% | viability, T/C (second compound 0.316 µM, first compound 0.00316 µM): 92.9% | viability, T/C (second compound 0.316 µM, first compound 0.01 µM): 80.7% | viability, T/C [13]: 71.2% | viability, T/C [14]: 56.8% | viability, T/C [15]: 47.4% | viability, T/C [16]: 53.5% | viability, T/C (second compound 1 µM, first compound 0.00316 µM): 78.4% | viability, T/C (second compound 1 µM, first compound 0.01 µM): 70.8% | viability, T/C [19]: 53.6% | viability, T/C [20]: 47.8% | viability, T/C [21]: 50.3% | viability, T/C [22]: 49.6% | viability, T/C (second compound 3.16 µM, first compound 0.00316 µM): 62.1% | viability, T/C (second compound 3.16 µM, first compound 0.01 µM): 54.5% | viability, T/C [25]: 49% | viability, T/C [26]: 36.8% | viability, T/C [27]: 40.5% | viability, T/C [28]: 46.7% | viability, T/C (second compound 10 µM, first compound 0.00316 µM): 46.5% | viability, T/C (second compound 10 µM, first compound 0.01 µM): 40.7% | viability, T/C [31]: 37.2% | viability, T/C [32]: 29.3% | viability, T/C [33]: 41.1% | viability, T/C [34]: 49.6%

Cn1ncc(Cl)c1-c1cc(C(=O)NC(CN)Cc2cccc(F)c2)sc1Cl (stereo not drawn) + CC(Nc1ncnc2nc[nH]c12)c1cc2cccc(Cl)c2c(=O)n1-c1ccccc1
IC50 (second compound 0.0316 µM): 3880 nM | IC50 (second compound 0.1 µM): 3590 nM | IC50 (second compound 0.316 µM): 2610 nM | IC50 (second compound 1 µM): 2190 nM | IC50 (second compound 3.16 µM): 1050 nM | IC50 (second compound 10 µM): < 31.6 nM | viability, T/C [1]: 100% | viability, T/C [2]: 96.4% | viability, T/C [3]: 84.6% | viability, T/C [4]: 74.9% | viability, T/C [5]: 55% | viability, T/C [6]: 27.8% | viability, T/C [7]: 103% | viability, T/C [8]: 97.7% | viability, T/C [9]: 95.4% | viability, T/C [10]: 75.4% | viability, T/C [11]: 53.3% | viability, T/C [12]: 29.2% | viability, T/C [13]: 93.1% | viability, T/C [14]: 97.6% | viability, T/C [15]: 84.9% | viability, T/C [16]: 65.2% | viability, T/C [17]: 48.9% | viability, T/C [18]: 27.5% | viability, T/C [19]: 77.5% | viability, T/C [20]: 80.5% | viability, T/C [21]: 69.5% | viability, T/C [22]: 64% | viability, T/C [23]: 43.6% | viability, T/C [24]: 23.4% | viability, T/C [25]: 63.6% | viability, T/C [26]: 62.2% | viability, T/C [27]: 57% | viability, T/C [28]: 51.9% | viability, T/C [29]: 36.3% | viability, T/C [30]: 22% | viability, T/C [31]: 45.3% | viability, T/C [32]: 45% | viability, T/C [33]: 47.5% | viability, T/C [34]: 43.2% | viability, T/C [35]: 29.1% | viability, T/C [36]: 20.9%

Cn1nccc1Nc1nccc(-c2ccn(C(CO)c3ccc(Cl)c(F)c3)c(=O)c2)n1 (stereo not drawn) + CC(Nc1ncnc2nc[nH]c12)c1cc2cccc(Cl)c2c(=O)n1-c1ccccc1
IC50 (second compound 0.0316 µM): 706 nM | IC50 (second compound 0.1 µM): 512 nM | IC50 (second compound 0.316 µM): 300 nM | IC50 (second compound 1 µM): 117 nM | IC50 (second compound 3.16 µM): < 31.6 nM | IC50 (second compound 10 µM): < 31.6 nM | viability, T/C [1]: 80.1% | viability, T/C [2]: 68.8% | viability, T/C [3]: 56.8% | viability, T/C [4]: 46.4% | viability, T/C [5]: 38.6% | viability, T/C [6]: 27.9% | viability, T/C [7]: 75.3% | viability, T/C [8]: 70.2% | viability, T/C [9]: 50.6% | viability, T/C [10]: 44.3% | viability, T/C [11]: 36.4% | viability, T/C [12]: 27.1% | viability, T/C [13]: 79.3% | viability, T/C [14]: 62.3% | viability, T/C [15]: 48% | viability, T/C [16]: 40.1% | viability, T/C [17]: 35.5% | viability, T/C [18]: 26.8% | viability, T/C [19]: 64.8% | viability, T/C [20]: 50.1% | viability, T/C [21]: 39.4% | viability, T/C [22]: 36.4% | viability, T/C [23]: 33% | viability, T/C [24]: 22.1% | viability, T/C [25]: 45.9% | viability, T/C [26]: 38.8% | viability, T/C [27]: 28.5% | viability, T/C [28]: 24.8% | viability, T/C [29]: 25.2% | viability, T/C [30]: 21.2% | viability, T/C [31]: 36.5% | viability, T/C [32]: 27.3% | viability, T/C [33]: 25.7% | viability, T/C [34]: 20.8% | viability, T/C [35]: 22.9% | viability, T/C [36]: 16.8%
